PMC9623087, “Bioaffinity ultrafiltration coupled with HPLC-ESI-MS/MS for screening potential α-glucosidase inhibitors from pomegranate peel” (Frontiers in Nutrition, 2022)

Columns and labels:
α-glucosidase [1] = biological target: T1, α-glucosidase (Saccharomyces cerevisiae, UniProt P53341); test: Atomic force microscopy of α-glucosidase with EA; conditions: EA 40 μg/mL, α-glucosidase 2.0 U/mL, co-incubation 30 min
α-glucosidase [2] = biological target: T1, α-glucosidase; test: α-glucosidase inhibition assay (pNPG, absorbance at 405 nm); format: biochemical; conditions: 0.1 mg/mL and 0.5 mg/mL, Figure 1
Method: Different concentrations (0.01, 0.1, 1, 5, and 10 mg/mL) of Pop extract samples, PBS (pH = 6.8), and α-glucosidase (5 U/mL) were mixed together with equal volumes and co-incubated at 37°C for 15 min. 20 μL pNPG (3 mM) was added to incubate for another 10 min and 150 μL Na2CO3 (0.1 mol/L) was used to stop the reaction. […] Meanwhile, the blank group without samples were simultaneously carried out and the inhibition ratios were calculated ([21], [22]).
For identified compounds, two concentrations (0.1 mg/mL and 0.5 mg/mL) of each inhibitor were prepared and added to PBS (pH = 6.8) and α-glucosidase (5 U/mL) with equal volumes. After that, 20 μL pNPG (3 mM) was added to initiate the reactions and the changes of absorbance were recorded every 20 s immediately.

α-glucosidase [3] = biological target: T1, α-glucosidase; test: Kinetic analysis: Lineweaver–Burk plot and inhibitory reversibility; format: biochemical
Method: Lineweaver–Burk plot was employed to determine the inhibitory type of EA against α-glucosidase ([23]). Briefly, 20 μL α-glucosidase (5 U/mL) was mixed with different concentrations (0, 10, 15, 20, 30 μg/mL) of EA and incubated at 37°C for 15 min. pNPG (1.0, 2.0, 4.0, and 8.0 × 10^–3 mol/L) was added to initiate the reaction and the changes of absorbance were recorded every 60 s immediately. The double-reciprocal plots of reaction velocity (υ) against different concentration of pNPG (1/υ vs. 1/[pNPG]) were analyzed using the Lineweaver–Burk plot to determine inhibition constant (Ki).
To determine the inhibitory reversibility of EA against α-glucosidase, different concentrations (0, 20, 40, 60, and 100 μg/mL) of EA were reacted with the range of 7.5–1 U/mL α-glucosidase, the absorbance was recorded every 60 s immediately after the pNPG (3 mM) was added ([24]).

Kunming mice = test: Sucrose-loading test, postprandial blood glucose; format: in vivo; conditions: gavage, 0-120 min
Method: Kunming mice (male, 35–40 g) were gained from Xi’an Jiaotong University (Xi’an, China). […] After gavage, the blood glucose levels were measured at 0, 15, 30, 45, 60, 90, and 120 min by glucose detection kit (Robio Co., Shanghai, China). The whole process conformed to the Guide for the Care and Use of Laboratory Animals, eighth edition (ISBN 10: 0-309-15396-4) ([22]).

α-glucosidase [4] = biological target: T1, α-glucosidase; set-up: method as in PMID 20232167; conditions: EA isolated and identified from Rosa gallica; cited from earlier work
α-glucosidase [5] = biological target: T1, α-glucosidase; test: Fluorescence quenching of α-glucosidase by EA (Stern–Volmer, binding and thermodynamic analysis)
Method: The fluorescence spectra of α-glucosidase with or without EA were measured at three different temperatures (298, 304, and 310 K) according to the previous study ([21]). Exactly, 2.5 mL α-glucosidase (15 U/mL) was titrated by continuous additions of EA (5 μL each time) to reach a final concentration range from 0 to 19.89 × 10^–6 mol/L. After 5 min of equilibration under different temperatures, the steady fluorescence emission spectra were recorded from 300 to 460 nm with an excitation wavelength of 280 nm. Additionally, the fluorescence of free EA was measured as the background. According to fluorescence spectra data, the quenching constant (Ksv), binding constant (Ka), number of binding sites (n), the binding constant of accessible fluorophores, and the values of free energy change (△G^0), △H^0 and △S^0 were calculated according the previous reports ([21], [22], [25]).
To further exploit the quenching mechanism, Ksv was calculated by Stern–Volmer equation to determine the quench type, dynamic quenching or static quenching:
(1) F0/F=1+KSV[Q]=1+Kqτ0[Q]
where F0 and F are the peak of fluorescence intensities of α-glucosidase […], respectively; Ksv is the dynamic quenching constant; Kq is the quenching rate constant; [Q] is the different concentrations of EA; τ0 is the average lifetime of fluorescence with the value of 10^–8 s.
For static quenching, the equation as follow was employed to calculate binding constant (Ka) and number of binding sites (n) between EA and α-glucosidase:
(2) lgF0-F/F=lgKa+nlg[Q]
Thermodynamic analysis was performed to further determine the binding forces between EA and α-glucosidase, and the relevant thermodynamic parameters, including△G^0,△H^0, and △S^0, were calculated by the two following equations: […]

α-glucosidase [6] = biological target: T1, α-glucosidase; test: Circular dichroism spectra, secondary structure contents of α-glucosidase; conditions: EA 2 mg/mL, α-glucosidase 5.0 U/mL
Method: The analysis of CD spectrum was performed according to the previous report with some modifications ([26]). Briefly, both α-glucosidase and EA were dissolved in PBS (pH = 6.8). […] The spectrum scanning range was 200–250 nm, the response time and scanning speed were 1 s and […], respectively.

T1 sequence (P53341 whole entry): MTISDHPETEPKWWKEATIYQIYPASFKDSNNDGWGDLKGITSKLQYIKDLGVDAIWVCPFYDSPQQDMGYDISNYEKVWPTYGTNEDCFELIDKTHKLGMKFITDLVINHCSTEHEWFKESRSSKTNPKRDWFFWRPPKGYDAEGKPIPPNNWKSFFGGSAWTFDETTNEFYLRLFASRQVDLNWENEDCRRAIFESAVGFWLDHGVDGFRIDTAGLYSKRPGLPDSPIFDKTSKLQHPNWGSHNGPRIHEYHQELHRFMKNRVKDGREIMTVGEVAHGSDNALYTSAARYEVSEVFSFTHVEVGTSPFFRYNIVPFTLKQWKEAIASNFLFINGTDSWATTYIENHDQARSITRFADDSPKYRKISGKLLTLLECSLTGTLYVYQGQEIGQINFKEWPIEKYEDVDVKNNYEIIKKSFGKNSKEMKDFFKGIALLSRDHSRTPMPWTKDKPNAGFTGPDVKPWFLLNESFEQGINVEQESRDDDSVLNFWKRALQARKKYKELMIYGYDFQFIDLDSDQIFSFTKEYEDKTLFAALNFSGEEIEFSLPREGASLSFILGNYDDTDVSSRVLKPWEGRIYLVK

SMILES: O=c1oc2c(O)c(O)cc3c(=O)oc4c(O)c(O)cc1c4c23 [EA, Ellagic acid]
- effect on α-glucosidase molecules observed by AFM (in words) (α-glucosidase [1]): aggregated together and formed irregular polymers
- α-glucosidase inhibitory activity of identified compounds (in words) (α-glucosidase [2]): strongest activity
- inhibitory type (α-glucosidase [3]; Lineweaver–Burk plot, lines intersect on Y axis): competitive
- inhibitory reversibility (α-glucosidase [3]; υ vs. [α-glucosidase], EA 0-100 μg/mL): reversible
- reduction of AUC of blood glucose (Kunming mice; sucrose 2 g/kg + EA 25 mg/kg): 31.8%
- α-glucosidase inhibition (in words) (α-glucosidase [4]): almost no α-glucosidase inhibition
- fluorescence quenching mechanism (α-glucosidase [5]): static quenching mechanism
- Ksv (quenching constant) (α-glucosidase [5]; 298 K): 4.75 ± 0.01 ×10^5 L/mol
- n (number of binding sites) (α-glucosidase [5]; 298 K): 0.87
- ΔG^0 (α-glucosidase [5]; 298 K): -5.533 ± 0.0072 kcal/mol
- Ksv (quenching constant) (α-glucosidase [5]; 304 K): 4.05 ± 0.03 ×10^5 L/mol
- n (number of binding sites) (α-glucosidase [5]; 304 K): 0.83
- ΔG^0 (α-glucosidase [5]; 304 K): -5.33 ± 0.014 kcal/mol
- Ksv (quenching constant) (α-glucosidase [5]; 310 K): 3.32 ± 0.01 ×10^5 L/mol
- n (number of binding sites) (α-glucosidase [5]; 310 K): 0.86
- ΔG^0 (α-glucosidase [5]; 310 K): -5.048 ± 0.012 kcal/mol
- Kq (quenching rate constant) (α-glucosidase [5]; at each temperature (298, 304, 310 K)): > 2.0 × 10^10 L/mol⋅s
- ΔH^0 (α-glucosidase [5]; from 298, 304 and 310 K): -17.58 ± 0.086 kcal/mol
- ΔS^0 (α-glucosidase [5]; from 298, 304 and 310 K): −169.14 ± 0.33 J/mol⋅K
- Random coil content of α-glucosidase (α-glucosidase [6]; VEA:Vα–glucosidase 25:200): 28.43 ± 0.21%
- α–helix content of α-glucosidase (α-glucosidase [6]; VEA:Vα–glucosidase 25:200): 29.53 ± 0.29%
- β–sheet content of α-glucosidase (α-glucosidase [6]; VEA:Vα–glucosidase 25:200): 23.73 ± 0.21%
- β–turn content of α-glucosidase (α-glucosidase [6]; VEA:Vα–glucosidase 25:200): 18.07 ± 0.21%
- Random coil content of α-glucosidase (α-glucosidase [6]; VEA:Vα–glucosidase 50:200): 30.47 ± 0.33%
- α–helix content of α-glucosidase (α-glucosidase [6]; VEA:Vα–glucosidase 50:200): 28.17 ± 0.21%
- β–sheet content of α-glucosidase (α-glucosidase [6]; VEA:Vα–glucosidase 50:200): 26.60 ± 0.22%
- β–turn content of α-glucosidase (α-glucosidase [6]; VEA:Vα–glucosidase 50:200): 18.57 ± 0.29%
- Random coil content of α-glucosidase (α-glucosidase [6]; VEA:Vα–glucosidase 100:200): 32.87 ± 0.33%
- α–helix content of α-glucosidase (α-glucosidase [6]; VEA:Vα–glucosidase 100:200): 24.83 ± 0.29%
- β–sheet content of α-glucosidase (α-glucosidase [6]; VEA:Vα–glucosidase 100:200): 31.00 ± 0.54%
- β–turn content of α-glucosidase (α-glucosidase [6]; VEA:Vα–glucosidase 100:200): 18.70 ± 0.33%

SMILES: O=C(O)c1cc(O)c(O)c(O)c1 [gallic acid, Gallic acid]
- α-glucosidase inhibitory activity of identified compounds (in words) (α-glucosidase [2]): strong activity

SMILES: Oc1ccc(/C=C/c2cc(O)cc(O)c2)cc1 [resveratrol, Resveratrol]
- α-glucosidase inhibitory activity of identified compounds (in words) (α-glucosidase [2]): strong inhibitory activity

SMILES: C[C@H]1O[C@H](O[C@H]2[C@H](O)[C@@H](O)[C@@H](O[C@H]3[C@H](O)[C@@H](O)C(O)O[C@@H]3CO)O[C@@H]2CO)[C@H](O)[C@@H](O)[C@@H]1N[C@H]1C=C(CO)[C@@H](O)[C@H](O)[C@H]1O (some centres unmarked) [acarbose, Acarbose, reference compound]
- reduction of AUC of blood glucose (Kunming mice; sucrose 2 g/kg + acarbose 50 mg/kg): 36.4%

SMILES: O=c1c(O)c(-c2ccc(O)cc2)oc2cc(O)cc(O)c12 [kaempferol, Kaempferol]
- α-glucosidase inhibitory activity of identified compounds (in words) (α-glucosidase [2]): strong activity
